These results are taken from ChEMBL document CHEMBL5230132, “Cannabinoid Receptor Subtype 2 (CB2R) in a Multitarget Approach: Perspective of an Innovative Strategy in Cancer and Neurodegeneration” (J Med Chem, 2020).

Bounds are passed on as bounds.

The target in test [1] is T1, Cannabinoid receptor 2 (Homo sapiens, UniProt P34972). As to the kind of experiment: Displacement of [3H]CP55940 from CB2 receptor (unknown origin) expressed in HEK cell membrane measured after 90 mins by competitive binding assay. The format is cell membranes.
T1 sequence (P34972 whole entry): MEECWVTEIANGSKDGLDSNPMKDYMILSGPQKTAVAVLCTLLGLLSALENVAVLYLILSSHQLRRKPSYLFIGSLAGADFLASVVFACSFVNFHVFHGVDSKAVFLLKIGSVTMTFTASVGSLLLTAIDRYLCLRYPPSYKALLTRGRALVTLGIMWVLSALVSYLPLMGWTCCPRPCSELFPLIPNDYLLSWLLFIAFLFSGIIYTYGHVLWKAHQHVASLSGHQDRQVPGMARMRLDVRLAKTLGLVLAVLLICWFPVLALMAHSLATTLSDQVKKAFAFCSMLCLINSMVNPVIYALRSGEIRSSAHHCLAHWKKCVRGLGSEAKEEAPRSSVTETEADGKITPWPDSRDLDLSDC
In test [2] the target is T1, Cannabinoid receptor 2. Description: Displacement of [3H]CP55940 from human CB2 receptor expressed in HEK293 cell membrane assessed as inhibition constant incubated for 1 hr by liquid scintillation counting method. The test is classed as cell membranes. A general note: Loss of bound radioactivity is the signal in a displacement assay; it reports binding, not function.

Test [3] concerns the target Cannabinoid receptor 1 (Rattus norvegicus, UniProt P20272). Description: Displacement of [3H]CP55940 from rat brain membrane CB1 receptor assessed as inhibition constant incubated for 1 hr by liquid scintillation counting method. The format is cell membranes.
The target in test [4] is Cholinesterase (Homo sapiens) (UniProt P06276). As to the kind of experiment: Inhibition of human BChE at 10 uM relative to control.
Cholinesterase (Homo sapiens), sequence (P06276 whole entry): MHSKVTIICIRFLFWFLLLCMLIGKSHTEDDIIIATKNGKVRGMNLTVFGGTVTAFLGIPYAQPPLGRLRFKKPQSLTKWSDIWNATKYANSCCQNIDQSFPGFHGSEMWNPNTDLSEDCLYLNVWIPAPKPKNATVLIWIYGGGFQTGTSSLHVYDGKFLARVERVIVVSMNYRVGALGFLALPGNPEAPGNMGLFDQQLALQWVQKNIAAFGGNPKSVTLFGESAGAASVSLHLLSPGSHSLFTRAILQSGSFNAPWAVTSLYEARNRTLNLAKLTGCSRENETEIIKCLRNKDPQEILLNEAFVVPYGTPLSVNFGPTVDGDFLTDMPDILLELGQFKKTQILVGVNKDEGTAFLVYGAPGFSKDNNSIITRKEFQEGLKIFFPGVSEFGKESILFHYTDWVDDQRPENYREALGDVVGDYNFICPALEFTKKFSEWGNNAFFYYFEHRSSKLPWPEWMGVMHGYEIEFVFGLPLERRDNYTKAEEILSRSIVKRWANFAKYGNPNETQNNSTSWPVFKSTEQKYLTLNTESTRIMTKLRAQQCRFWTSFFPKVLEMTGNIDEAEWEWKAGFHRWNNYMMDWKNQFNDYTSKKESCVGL
The target of test [5] is T1, Cannabinoid receptor 2. Description: Binding affinity to CB2 receptor (unknown origin) assessed as inhibition constant.
In test [6] the target is T2, Cannabinoid receptor 1 (Homo sapiens, UniProt P21554). Description: Binding affinity to CB1 receptor (unknown origin) assessed as inhibition constant.
T2 sequence (P21554 whole entry): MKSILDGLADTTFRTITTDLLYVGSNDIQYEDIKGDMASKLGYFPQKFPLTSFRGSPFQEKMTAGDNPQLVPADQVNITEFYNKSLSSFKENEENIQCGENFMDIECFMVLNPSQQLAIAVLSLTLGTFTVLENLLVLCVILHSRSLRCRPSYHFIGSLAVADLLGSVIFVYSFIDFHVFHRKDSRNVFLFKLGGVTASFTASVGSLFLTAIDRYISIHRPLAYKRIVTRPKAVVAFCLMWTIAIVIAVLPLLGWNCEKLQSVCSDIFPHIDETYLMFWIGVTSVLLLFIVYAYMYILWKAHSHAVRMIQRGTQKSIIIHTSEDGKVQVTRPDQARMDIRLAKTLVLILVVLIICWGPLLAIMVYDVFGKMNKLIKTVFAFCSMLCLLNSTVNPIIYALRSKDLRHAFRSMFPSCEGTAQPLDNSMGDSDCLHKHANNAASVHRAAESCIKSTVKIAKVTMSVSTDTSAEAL
Test [7] deals with T1, Cannabinoid receptor 2. Description: Binding affinity to human CB2 receptor stably expressed in HEK cells assessed as inhibition constant by […]. The format is cell-based.
Test [8] addresses T2, Cannabinoid receptor 1. As to the kind of experiment: Displacement of [3H]CP55940 from human CB1 receptor stably expressed in CHO cells at 10 uM by radioligand binding assay relative to control. The test is classed as cell-based.
Test [9] deals with T2, Cannabinoid receptor 1. Description: Binding affinity to human CB1 receptor stably expressing CHO cells assessed as inhibition constant by radioligand binding assay. The test is classed as cell-based.
The target of test [10] is T2, Cannabinoid receptor 1. Description: Displacement of [3H]CP55940 from human CB1 receptor.
Test [11] concerns the target T1, Cannabinoid receptor 2. Description: Displacement of [3H]CP55940 from human CB2 receptor.

Cannabinoid receptor 1 (Rattus norvegicus, UniProt P20272), sequence (P20272 whole entry): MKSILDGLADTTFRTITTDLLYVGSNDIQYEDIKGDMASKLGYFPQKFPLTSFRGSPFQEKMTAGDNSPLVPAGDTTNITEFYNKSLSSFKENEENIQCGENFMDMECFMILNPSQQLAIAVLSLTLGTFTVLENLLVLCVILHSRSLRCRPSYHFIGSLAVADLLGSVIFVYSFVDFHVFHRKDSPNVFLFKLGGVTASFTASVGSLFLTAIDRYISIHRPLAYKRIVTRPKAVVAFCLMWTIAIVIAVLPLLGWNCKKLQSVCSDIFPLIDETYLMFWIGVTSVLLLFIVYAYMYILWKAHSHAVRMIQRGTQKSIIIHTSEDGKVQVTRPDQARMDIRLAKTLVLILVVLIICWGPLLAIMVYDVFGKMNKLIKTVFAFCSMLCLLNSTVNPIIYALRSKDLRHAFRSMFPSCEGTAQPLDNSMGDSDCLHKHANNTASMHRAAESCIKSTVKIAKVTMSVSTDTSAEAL

Usually Ki stands for the dissociation constant of the complex between target and ligand, obtained from inhibition or displacement. In turn, `CN1CCCCC1Cn1cc(C(=O)c2cc([N+](=O)[O-])ccc2I)c2ccccc21` (stereo not drawn) showed an inhibition constant (Ki) in [1] of 0.007 µM.

For the compound `CCC(C)(C)c1ccc2c(c1)OC(C)(C)C1CC=C(C)CC21` (stereo not drawn), the Ki in [2] came out at 0.014 µM; in test [3], 2.29 µM.

A word on the inhibition: it is the drop in the measured response relative to a control, in per cent. For `CCN(CC)C(=O)c1ccc2c(c1)nc(Nc1ccc(Oc3ccccc3)cc1)n2CCC(C)C`, the inhibition in [4] turned out to be 2%.

For `CCCn1c(C)c(C(=O)c2ccc3ccccc3c2)c2ccccc21`, the figures for the Ki in test [5] and in [6] were 0.0138 µM and 0.383 µM, respectively.

For the compound `CCOc1ccc(Nc2nc3cc(C(=O)N(CC)CC)ccc3n2CCC(C)C)cc1`, the Ki in test [7] was 0.0019 µM. Moreover, the Activity in [8] is 13%.

In the case of `CCOc1ccc(Cc2nc3cc(C(=O)N(CC)CC)ccc3n2CCC(C)C)cc1`, the Ki in test [9] is more than 5 µM.

As for `O=C(c1ccc2ccccc2c1)c1cn2c3c(cccc13)OCC2CN1CCOCC1` (stereo not drawn), the inhibition constant (Ki) in test [10] worked out at 0.0623 µM; in [11], 0.0033 µM.

`CCCC(C)(C)c1ccc2c(c1)OC(C)(C)C1CC=C(C)CC21` (stereo not drawn): the Ki in test [2] came to 0.0034 µM; in test [3], 0.677 µM.
